“Also recorded” adds a separate entry of the source.
Tests used:
Assay type in all cases: in vivo
Soybean plants [1] = assay: Soil drench assay, soybean plants; design: key to phytotoxicity (qualitative), soil drench: NOE: No Observable Effect; XXX: Dead; -: the lowest phytotoxic effect; --: phytotoxicity that did not result in death; ---: phytotoxicity that did not result in death; ------: the highest; conditions: for phytotoxicity (qualitative), soil drench: Soybean, 40 mL
Procedure: Soybean plants were planted under 1 cm of potting soil and watered every 2-3 days as necessary. Plants were grown in pots (6″ wide×4.5″ deep) with approximately 800 mL of soil for each plant. Seeds germinated approximately 3-5 days after being planted. Plants were grown in a greenhouse under a constant temperature and light environment (25±5° C., 12 hr: 12 hr light: dark cycle). Plants were grown until reaching 1-2 weeks old and 3-4 weeks old; these plants served as the “young” and “old” plants in this study, respectively.
Formulations of the various active ingredients were created using the monoterpenoid derivatives, potassium hydroxide, and Triton-X 100™ to aid in the solvation of the active ingredient. Formulations consisted of 0.5%-1% active ingredient by weight (0.5-1 g/100 ml water), with a 1:1 molar ratio of potassium hydroxide used to aid in the solvation (135-269 mg/100 mL for both thymyloxyacetic acid and carvacryloxyacetic acid). […] Formulations were applied to the soil next to the base of the stem of the plant to avoid foliar contact. Observations were performed 2 days and 3 weeks after soil drench to determine the effects of the treatments on the various types and stages of plants.

Wood sorrel = assay: Foliar spray, wood sorrel; conditions: 20 sprays of 1%; observed 2 days after exposure and later
Procedure: Wood sorrel on the ground of the greenhouse was also treated with active ingredient in order to better assess the effects of foliar treatments on multiple plant species. A patch of wood sorrel was (approximately 4′×3′) was treated with 20 sprays (mist setting) from a MAINStays ironing spray bottle. Effects of the spray were recorded 2 days after exposure.

[2] = tested on: Pigweed (Amaranthus palmeri); assay: Weed soil drench assay, pigweed; conditions: for Percentage mortality: Pigweed, 40 mL of 5% solution, soil drench; for chlorosis and phytotoxicity: pigweed, 40 ml of 5%, 2 days after application
Procedure: Pigweed plants were obtained from the wild in prairie fields in Iowa. Plants were carefully transplanted into pots (6″ wide×4.5″ deep) with approximately 800 mL of soil for each plant. Plants were maintained in a greenhouse under a constant temperature and light environment (25±5° C., 12 hr: 12 hr light: dark cycle). Plants were watered every 2-3 days as needed.
Formulations of the various active ingredients were created using the monoterpenoid derivatives, potassium hydroxide, and Triton-X 100™ to aid in the solvation of the active ingredient. Formulations included 5% active ingredient by weight (0.5-1 g/100 ml water), with a 1:1 molar ratio of potassium hydroxide used to aid in the solvation (135-269 mg/100 mL for both thymyloxyacetic acid and carvacryloxyacetic acid). […] Observations were performed 2 days and 3 weeks after soil drench to determine the effects of the treatments on the various types and stages of plants. Phytotoxicity is reported as percentage of total plants treated compared to a control treatment that was exposed to a similar formulation (without the active monoterpenoid derivatives).

Soybean plants [3] = assay: Foliar spray assay, soybean plants; conditions: 1% foliar spray; for phytotoxic effects on soybean plants (words), foliar spray: 1-month old soybean plants, up to 14 days after exposure; for chlorosis / leaf death: soybean plants
Procedure: Soybean plants were planted under 1 cm of potting soil and watered every 2-3 days as necessary. Plants were grown in pots (6″ wide×4.5″ deep) with approximately 800 mL of soil for each plant. Plants germinated approximately 3-5 days after being planted. Plants were grown in a greenhouse under a constant temperature and light environment (25±5° C., 12 hr:12 hr light:dark cycle). Plants were grown until reaching 4 weeks old and were then used for the foliar spray experiment.
Formulations were made to include 1% thymyloxyacetic acid, 0.269% potassium hydroxide, and 0.25% Triton-X 100™. Soybean plants were sprayed with 10 mists from a MAINStays™ Ironing Spray bottle set to the mist setting. This corresponded to the minimum amount necessary to cause dripping from the leaves of the plants. […] Plants were placed under high intensity light (directly below greenhouse lamps) and low intensity light (not under lamp/ambient light environment). Light intensity was chosen as a factor for this experimental design. […] This effect is greatly diminished under low intensity light conditions. If thymyloxyacetic acid is causing phytotoxicity in the same mechanism of action as other plant terpenoids, there should be a drastic difference in the phytotoxicity among these different levels of light intensity.

[4] = tested on: Palmer Amaranth (Amaranthus palmeri); assay: Toxicity assay (probit LC50), Palmer amaranth
Excerpt: (§1) Palmer amaranth seeds were obtained from the Department of Agronomy at Iowa State University. Individual seeds were sown for each pot (1.5″ wide×3″ deep) with approximately 7.5 g of soil for each plot. Five seeds/plot were sown into numerous plots. After one month of germination, germinated plants were counted in each plot and this number was used for the total number of plants challenged per plot in the toxicity assessment
(§2) The total number of plants were counted in each plot in 24×6 hexagonal small plot planter tray. The number of germinated seeds in each plot was enumerated after one month, and for each plot this number was recorded and used as the total for each plot. Differing concentrations of thymyloxyacetic acid was applied in 5% Triton-X 100 and 1:1 molar ratio potassium hydroxide:thymyloxyacetic acid to aid in the solubility of the compound in water. Ten mL of solution was applied to each plot, and the mortality of the plants was assessed at 3 days and 2 weeks post application (for some treatments). Mortality at these time points were enumerated out of the total plants germinated in each plot at the beginning of the assay. At both time points, the total number of dead plants and total number of plants at the beginning of the assay were recorded for each observation. A Probit model was used to calculate the LC50 values for each of the compounds explored in this assay. A formulation control (with no active ingredient) was screened against a number of plants and factored into the final probit model. This formulation control had little-to-no effect by itself.

[5] = tested on: Cocklebur (Xanthium spp.); assay: Toxicity assay (probit LC50), cocklebur
Excerpt: as §1, with “Cocklebur burs” for “Palmer amaranth seeds”, “One bur/plot was” for “Five seeds/plot were”, “assessment.” for “assessment”
as §2

[6] = tested on: various dicot weed species; assay: Selectivity assessment, dicot weed species compared to bluegrass; conditions: range over various weed species
Excerpt: Kentucky bluegrass seeds were purchased in a bag under the commercial name of. Individual seeds were sown for each pot (1.5″ wide×3″ deep) with approximately 7.5 g of soil for each plot. 10 seeds/plot was sown into numerous plots. After one month of germination, germinated plants were counted in each plot and this number was used for the total number of plants challenged per plot in the toxicity assessment.
as §2, with “A formulation control (with no active ingredient) was screened against a number of plants and factored into the final probit model. This formulation control had little-to-no effect by itself.” left out

[7] = 2-days after treatment, Old Plants, 0.50%
[8] = 2-days after treatment, Old Plants, 1%
[9] = 2-days after treatment, Young Plants, 0.50%
[10] = 3-weeks after treatment, Old Plants, 0.50%
[11] = 3-weeks after treatment, Young Plants, 0.50%
[12] = 3-weeks after treatment, Young Plants, 1%

**Q.** How did the “phytotoxicity (qualitative), soil drench” value (Soybean plants [1]; [7]) turn out when Cc1ccc(C(C)C)cc1OCC(=O)O [carvacryloxyacetic acid, 2-(5-isopropyl-2-methylphenoxy)acetic acid] was run?
**A.** The value was “--”.

**Q.** What about the “phytotoxicity (qualitative), soil drench” value (Soybean plants [1]; [8]) of the same compound?
**A.** The value was “---”.

**Q.** What about the “phytotoxicity (qualitative), soil drench” value (Soybean plants [1]; [9]) of the same compound?
**A.** Its value is “---”.

**Q.** What about the “phytotoxicity (qualitative), soil drench” value (Soybean plants [1]; [10]) of the same compound?
**A.** Its value is “XXX”.

**Q.** What about the “phytotoxicity (qualitative), soil drench” value (Soybean plants [1]; [11]) of the same compound?
**A.** Its value is “XXX”.

**Q.** What about the “phytotoxicity (qualitative), soil drench” value (Soybean plants [1]; [12]) of the same compound?
**A.** The value was “XXX”.

**Q.** And the “phytotoxic effect on wood sorrel, foliar spray” value (Wood sorrel)?
**A.** Its value is “Death followed quickly after 2 days post-exposure; also recorded: immediate and widespread chlorosis followed by relatively quick plant death”.

**Q.** And the Percentage mortality ([2]; 2-days after treatment)?
**A.** Its Percentage mortality is 100%.

**Q.** And the Percentage mortality ([2]; 3-weeks after treatment)?
**A.** The Percentage mortality was 100%.

**Q.** And the “chlorosis and phytotoxicity” value [2]?
**A.** The value was “significant chlorosis and phytotoxicity”.

**Q.** With Cc1ccc(C(C)C)c(OCC(=O)O)c1 [thymyloxyacetic acid, 2-(2-isopropyl-5-methylphenoxy)acetic acid] as the compound, how does the “phytotoxicity (qualitative), soil drench” value (Soybean plants [1]; [7]) read?
**A.** The value was “-”.

**Q.** And the “phytotoxicity (qualitative), soil drench” value (Soybean plants [1]; [8])?
**A.** The value was “-”.

**Q.** What about the “phytotoxicity (qualitative), soil drench” value (Soybean plants [1]; [9]) of the same compound?
**A.** Its value is “--”.

**Q.** And the “phytotoxicity (qualitative), soil drench” value (Soybean plants [1]; 2-days after treatment, Young Plants, 1%)?
**A.** Its value is “---”.

**Q.** And the “phytotoxicity (qualitative), soil drench” value (Soybean plants [1]; [10])?
**A.** The value was “-”.

**Q.** What about the “phytotoxicity (qualitative), soil drench” value (Soybean plants [1]; [11]) of the same compound?
**A.** The value was “XXX”.

**Q.** What about the “phytotoxicity (qualitative), soil drench” value (Soybean plants [1]; [12]) of the same compound?
**A.** The value was “XXX”.

**Q.** And the “effect on soybean plants, soil drench” value (Soybean plants [1]; old plant, 3 weeks after exposure, 0.5%)?
**A.** The value was “significant wilting and chlorosis”.

**Q.** And the “effect on soybean plants, soil drench” value (Soybean plants [1]; old plants, 3 weeks after exposure, 1%)?
**A.** Its value is “experienced mortality”.

**Q.** And the “mortality of soybean plants, soil drench” value (Soybean plants [1]; young plants, 3 weeks after exposure)?
**A.** Its value is 100%.

**Q.** What about the “effect on soybean plants, soil drench” value (Soybean plants [1]; young plants, 2 days after exposure, 0.5%) of the same compound?
**A.** Its value is “Minor inhibition”.

**Q.** And the “effect on soybean plants, soil drench” value (Soybean plants [1]; young plants, 2 days after exposure, 1%)?
**A.** The value was “major inhibition”.

**Q.** And the “phytotoxic effects on soybean plants (words), foliar spray” value (Soybean plants [3])?
**A.** Its value is “significant chlorosis and wilting”.

**Q.** And the “phytotoxic effects on soybean plants (words), foliar spray” value (Soybean plants [3]; listed as Thymyloxyacetic acid)?
**A.** Its value is “significant phytotoxic effects”.

**Q.** And the chlorosis (Soybean plants [3]; High intensity light)?
**A.** The chlorosis was “✓”.

**Q.** What about the leaf death (Soybean plants [3]; High intensity light) of the same compound?
**A.** Its leaf death is “✓”.

**Q.** What about the chlorosis (Soybean plants [3]; Low intensity light) of the same compound?
**A.** The chlorosis was “✓”.

**Q.** And the leaf death (Soybean plants [3]; Low intensity light)?
**A.** The leaf death was “✓”.

**Q.** And the Percentage mortality ([2]; 2-days after treatment)?
**A.** The Percentage mortality was 100%.

**Q.** What about the Percentage mortality ([2]; 3-weeks after treatment) of the same compound?
**A.** The Percentage mortality was 100%.

**Q.** And the “chlorosis and phytotoxicity” value [2]?
**A.** The value was “significant chlorosis and phytotoxicity”.

**Q.** What about the “LC50 Value” ([4]; Palmer Amaranth (Table 6)) of the same compound?
**A.** The value was 1700 ppm.

**Q.** And the “Selective Toxicity Compared to Bluegrass” value ([4]; Palmer Amaranth compared to bluegrass)?
**A.** The value was 2.06.

**Q.** And the LC50 Value ([4]; Palmer Amaranth, 2-week post application, probit)?
**A.** The LC50 Value was 1350 ppm.

**Q.** And the LC50 Value ([4]; Palmer Amaranth, 3-day post application, probit)?
**A.** The LC50 Value was 1700 ppm.

**Q.** And the “LC50 Value” ([5]; Cocklebur)?
**A.** The value was 1530 ppm.

**Q.** And the “Selective Toxicity Compared to Bluegrass” value ([5]; Cocklebur compared to bluegrass)?
**A.** Its value is 2.29.

**Q.** What about the “selectivity ratio compared to a blue grass species” value [6] of the same compound?
**A.** The value was 2.06-5 fold.

From US12213479B2, “Monoterpenoid/phenylpropanoid-containing compounds and methods of their making and use as herbicides” (KITTRICH CORPORATION, priority 2016, dated 2025)
